From US20220160706A1, “PHARMACEUTICAL COMBINATION COMPRISING TNO155 AND A PD-1 INHIBITOR” (NOVARTIS AG, priority 2019, published 2022)
“And” between values parts separate entries of the source, which are not always exact repeats. Identical values can stand only once.

Columns and labels:
[1] = system: phosphorylated ERK1/2 (pERK); assay: in vitro pERK inhibition in KYSE-520; assay type: cell-based; conditions: Homo sapiens; KYSE-520 cells
From the text: (§1) SHP2 inhibition can be measured by assessing biomarkers within the MAPK signaling pathway, such as decreased levels of phosphorylated ERK1/2 (pERK) and downregulation of dual specificity phosphatase 6 (DUSP6) mRNA transcript.

[2] = system: KYSE-520 (esophageal squamous cell carcinoma) cancer cell line; assay: antiproliferation in KYSE-520; assay type: cell-based; conditions: Homo sapiens; KYSE-520 cells
From the text: as §1

[3] = system: EGFR-dependent DETROIT-562 cancer cell line; assay: in vivo SHP2 inhibition and efficacy, DETROIT-562 xenograft; conditions: oral 20 mg/kg
From the text: as §1

MC38 cell line = MC38 cell line in vitro proliferation/viability; assay type: cell-based, mouse; conditions: MC38 (PTPN11 G503V) in vitro, absence of immune cells
[4] = system: DETROIT-562 (pharyngeal squamous cell carcinoma) cancer cell line; assay: antiproliferation in DETROIT-562; assay type: cell-based; conditions: Homo sapiens; DETROIT-562 cells
CD14+ monocytes = assay: M-CSF stimulated proliferation of CD14+ monocytes (CellTiter-Glo); assay type: cell-based, human; conditions: 50 ng/mL M-CSF, 6 days incubation
Experimental: Investigation of the effect of TNO155 on M-CSF stimualted proliferation of CD14+ monocytes. Peripheral blood mononuclear cells (PBMC) were isolated from the whole blood of two donors (donor 1670 and […]) by CPT tubes and spinning at 1800 rpm for 20 minutes. CD14 positive monocytes were then isolated from PBMC using human Pan Monocyte Isolation Kit (Miltenyi Biotec #130-096-537). 5000 monocytes suspended in 100 μL RPMI media were seeded in 96 well plates with 50 ng/mL recombinant M-CSF. 24 hours later, TNO155 was added at the indicated final concentrations. A CellTiter-Glo® (CTG) cell viability assay was performed according to manufacturer's instructions using a separate plate with identically seeded cells and also performed for all plates after 6 days of incubation with TNO155. The Day 6 measurements were normalized with DMSO treated groups as 100% to evaluate the TNO155 effects on the M-CSF stimulated proliferation of monocytes and the Day 0 cell seeding measurement was indicated by the light dotted line.

MC38 xenografts = MC38 xenografts in immunocompromised NSG mice; assay type: in vivo, mouse
in vivo = conditions: mouse
MC38 tumors = assay: MC38 syngeneic tumors in immune-competent C57BL/6 mice, anti-tumor activity; assay type: in vivo, mouse; conditions: day 14 post-first dose, TNO155 20 mg/kg BID, anti-PD1 10 mg/kg QW
[5] = system: phosphorylated ERK1/2 (pERK); assay: in vitro pERK inhibition in DETROIT-562; assay type: cell-based; conditions: Homo sapiens; DETROIT-562 cells
From the text: as §1

HNSCC = HNSCC patients progressed on platinum-based chemotherapy; cited from earlier work
human PD-1 = target: T1, human PD-1 (human, UniProt Q15116 25-167, limits assumed); assay: Biacore (SPR); format not stated
T1 construct: also called human PD1 antigen; Programmed Death 1

rodent PD-1 = assay: cross-reactivity with rodent PD-1; assay type: binding
IL-2 production = assay type: cell-based; conditions: human blood ex vivo, super antigen stimulation with Staphylococcal enterotoxin B (SEB)

T1 sequence (Q15116 25-167 limits assumed): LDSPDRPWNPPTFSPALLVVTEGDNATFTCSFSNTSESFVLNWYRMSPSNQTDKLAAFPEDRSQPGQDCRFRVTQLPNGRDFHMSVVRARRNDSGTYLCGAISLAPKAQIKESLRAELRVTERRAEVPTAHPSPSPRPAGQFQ

Q: With `C[C@@H]1OCC2(CCN(c3cnc(Sc4ccnc(N)c4Cl)c(N)n3)CC2)[C@@H]1N` [TNO155, (3S,4S)-8-(6-amino-5-((2-amino-3-chloropyridin-4-yl)thio)pyrazin-2-yl)-3-methyl-2-oxa-8-azaspiro[4.5]decan-4-amine] as the molecule, how does the IC50 [1] read?
A: 8 nM and 0.0034 µg/mL

Q: And the IC50 [2]?
A: 100 nM

Q: What about the “decrease in DUSP6 mRNA transcript” value ([3]; DETROIT-562 in vivo) of the same molecule?
A: approximately 95%

Q: And the tumor regression ([3]; twice-daily schedule, DETROIT-562)?
A: 47%

Q: And the “effect on cell proliferation or viability” value (MC38 cell line)?
A: no effect on cell proliferation or viability

Q: And the IC50 [4]?
A: 470 nM

Q: And the “M-CSF stimulated proliferation of CD14+ monocytes” value (CD14+ monocytes)?
A: blocked

Q: What about the anti-tumor activity (MC38 xenografts; 20 mg/kg BID, MC38 in NSG mice) of the same molecule?
A: lack of anti-tumor activity

Q: What about the “impact on downstream MAPK-signaling markers (phospho-ERK, phospho-RSK) in tumor cells” value (MC38 xenografts; MC38 with G503V mutation) of the same molecule?
A: no impact

Q: What about the MTD (in vivo) of the same molecule?
A: 20 mg/kg

Q: What about the “treatment/control (T/C)” value (MC38 tumors) of the same molecule?
A: 33.3%

Q: And the IC50 [5]?
A: 35 nM

Q: With “nivolumab: anti-programmed death-1 (PD-1) antibody” as the molecule, how does the “survival rate at one year” value (HNSCC) read?
A: 36%

B1: PDR001 (spartalizumab) (antibody, V domains shown)
VH: EVQLVQSGAEVKKPGESLRISCKGSGYTFTTYWMHWVRQATGQGLEWMGNIYPGTGGSNFDEKFKNRVTITADKSTSTAYMELSSLRSEDTAVYYCTRWTTGTGAYWGQGTTVTVSS
VL: EIVLTQSPATLSLSPGERATLSCKSSQSLLDSGNQKNFLTWYQQKPGQAPRLLIYWASTRESGVPSRFSGSGSGTDFTFTISSLEAEDAATYYCQNDYSYPYTFGQGTKVEIK
Q: For B1, which Kd (human PD-1) is on record?
A: 0.827 nM

Q: What about the “cross-reactivity with rodent PD-1” value (rodent PD-1) of the same molecule?
A: does not cross-react

Q: And the “enhancement of IL-2 production” value (IL-2 production)?
A: approximately 2 fold
